Where two headings read alike, the source gives them in different places.
Settings: initial 0.220 %
Procedure: The samples were tested for stability after having been stored at 25° C. for three months.

Sorbic Acid Concentration (%) After 3 months storage at 25 C. (pH = 5.5): 0.13%
Sorbic Acid Concentration (%) After 3 months storage at 25 C. (pH = 6.0): 0.21%
Sorbic Acid Concentration (%) After 3 months storage at 25 C. (pH = 6.5): 0.21%
Structure (SMILES): C/C=C/C=C/C(=O)O [Sorbic Acid, sorbic acid]

Reference: patent US20090286718A1, “Stable Aqueous Cyclosporin Compositions” (SIRION THERAPEUTICS, INC., priority 2008, published 2009)
